# From patent publication US11787802B2, “Dihydrobenzimidazolones for medical treatment” (C4 Therapeutics, Inc., priority 2017, dated 2023)
# pKd: −log10 of the molar value.
# Biological target: hCereblon(M1-L442)_hDDB1(M1-H1140) (Homo sapiens (Human), UniProt Q96SW2)
# Assay: Fluorescence direct binding protocol (tryptophan fluorescence titration)
# Settings: fluorescence titration at 20° C., excited at 280 nm, recorded at 340 nm; protein 5.0 E−8 M; assay buffer 50 mM Hepes 7.4 200 mM NaCl; read-out: Fluorescence h-Cereblon_DDB1 Mean Kd_EQ
# Description: Fluorescence Direct Binding Protocol
# Determination of the affinities of compounds to protein containing one or more tryptophan is measurable by monitoring the fluorescence emission in direct mode. The measurements depending on the protein available amounts are performed either manually in a cuvette on ISS-PC1 photon counting spectrofluorometer or automatically in well plates on a fluorescence plate reader device. Fluorescence titrations are performed at 20° C. in the chosen binding assay buffer by using a defined constant protein concentration against ligand concentration variations. Small aliquots of known ligand concentration solubilized in DMSO were added and the fluorescence, excited at 280 nm, was recorded at 340 nm. The fluorescence intensity was corrected for protein dilution and for the filter effect (Birdsall et al.^69). The corrected fluorescence intensity was plotted against the ligand concentration and fitted using a four-parameter sigmoidal function, from which the equilibrium dissociation constant Kd was computed using the law of mass action assuming a 1:1 protein-ligand complex (Eftink, 1997^70).
# Process • 1) Optimization of measurement parameters to minimize protein consumption and to minimize the dilution effect and the DMSO content • 2) Titration measurements of the protein against ligand by at least 12 titration steps to obtain a good s-curve fit • 3) Repeat the same titration measurements with the ligand alone to enable correction • 4) Check the stability of the protein once by titration against DMSO alone • 5) Determination of the molar extinction coefficients of the ligand at 280 and 340 nm with help of an UV-spectrophotometer • 6) Use Excel template for the correction of the measured raw data • 7) Use GraphPad Prism software for the quadratic binding fit and the KD evaluation.
# hCereblon(M1-L442)_hDDB1(M1-H1140), sequence (Q96SW2 whole entry): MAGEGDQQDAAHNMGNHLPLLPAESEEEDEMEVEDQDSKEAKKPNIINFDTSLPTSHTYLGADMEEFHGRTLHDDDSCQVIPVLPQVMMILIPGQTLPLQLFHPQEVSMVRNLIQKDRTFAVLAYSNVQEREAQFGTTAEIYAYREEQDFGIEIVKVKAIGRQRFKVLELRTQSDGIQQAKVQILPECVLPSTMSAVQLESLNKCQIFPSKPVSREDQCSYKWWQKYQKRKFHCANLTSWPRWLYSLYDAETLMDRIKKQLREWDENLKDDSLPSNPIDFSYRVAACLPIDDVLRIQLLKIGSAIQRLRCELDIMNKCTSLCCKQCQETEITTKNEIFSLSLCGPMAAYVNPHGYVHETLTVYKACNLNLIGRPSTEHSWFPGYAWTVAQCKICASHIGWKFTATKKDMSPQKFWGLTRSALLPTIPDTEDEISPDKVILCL
# hCereblon(M1-L442)_hDDB1(M1-H1140), sequence (Q16531 whole entry partner): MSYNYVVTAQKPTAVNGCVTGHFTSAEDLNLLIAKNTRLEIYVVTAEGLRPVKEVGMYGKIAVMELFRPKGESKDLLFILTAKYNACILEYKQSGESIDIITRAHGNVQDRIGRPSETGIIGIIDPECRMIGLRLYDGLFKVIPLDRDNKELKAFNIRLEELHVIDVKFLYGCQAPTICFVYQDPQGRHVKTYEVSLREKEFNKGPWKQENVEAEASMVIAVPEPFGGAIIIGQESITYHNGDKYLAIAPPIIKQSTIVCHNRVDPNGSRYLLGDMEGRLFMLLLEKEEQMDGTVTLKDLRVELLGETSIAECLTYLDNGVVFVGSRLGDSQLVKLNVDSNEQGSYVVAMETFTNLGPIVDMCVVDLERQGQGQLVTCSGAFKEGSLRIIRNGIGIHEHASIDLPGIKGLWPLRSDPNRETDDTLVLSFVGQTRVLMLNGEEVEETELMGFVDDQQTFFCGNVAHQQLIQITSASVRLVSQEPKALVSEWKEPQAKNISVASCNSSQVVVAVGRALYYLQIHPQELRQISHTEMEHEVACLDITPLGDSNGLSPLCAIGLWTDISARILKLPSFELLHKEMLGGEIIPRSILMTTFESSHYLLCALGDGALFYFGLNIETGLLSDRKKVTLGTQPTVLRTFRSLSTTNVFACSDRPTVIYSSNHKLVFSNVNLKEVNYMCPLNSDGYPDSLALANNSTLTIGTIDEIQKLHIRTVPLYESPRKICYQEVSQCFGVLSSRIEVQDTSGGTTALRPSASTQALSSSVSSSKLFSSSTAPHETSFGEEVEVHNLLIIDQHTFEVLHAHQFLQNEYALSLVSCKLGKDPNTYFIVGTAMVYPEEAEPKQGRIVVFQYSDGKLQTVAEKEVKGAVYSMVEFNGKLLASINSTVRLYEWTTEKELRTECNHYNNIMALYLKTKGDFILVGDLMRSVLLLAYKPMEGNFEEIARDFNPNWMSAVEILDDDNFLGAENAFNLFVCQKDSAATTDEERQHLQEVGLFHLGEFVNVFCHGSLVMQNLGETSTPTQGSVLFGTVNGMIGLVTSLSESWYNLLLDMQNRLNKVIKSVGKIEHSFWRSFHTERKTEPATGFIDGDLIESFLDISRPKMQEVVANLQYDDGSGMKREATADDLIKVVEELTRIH
row,pKd,Structure (SMILES)
1,8.40,"CNC(=O)c1ccc2c(c1)nc(C(C)C)n2-c1cnc2[nH]c(=O)[nH]c2c1 [Example 79, 2-Isopropyl-N-methyl-1-(2-oxo-1,3-dihydroimidazo[4,5-b]pyridin-6-yl)benzimidazole-5-carboxamide]"
2,7.82,"CC(=O)NCCc1nc2ccccc2n1-c1ccc2[nH]c(=O)[nH]c2c1 [Example 80, N-[2-[1-(2-Oxo-1,3-dihydrobenzimidazol-5-yl)benzimidazol-2-yl]ethyl]acetamide]"
3,8.40,"CNC(=O)CCc1nc2ccccc2n1-c1ccc2[nH]c(=O)[nH]c2c1 [Example 81, N-Methyl-3-[1-(2-oxo-1,3-dihydrobenzimidazol-5-yl)benzimidazol-2-yl]propanamide]"
4,8.52,"COC(=O)c1nc2ccccc2n1-c1ccc2[nH]c(=O)[nH]c2c1 [Example 82, Methyl 1-(2-oxo-1,3-dihydrobenzimidazol-5-yl)benzimidazole-2-carboxylate]"
5,8.52,"O=c1[nH]c2ccc(-n3cnc4ccccc43)cc2[nH]1 [Example 83, 5-(Benzimidazol-1-yl)-1,3-dihydrobenzimidazol-2-one]"
6,8.52,"CC(O)c1nc2ccccc2n1-c1ccc2[nH]c(=O)[nH]c2c1 (stereo not shown) [Example 84, 5-[2-(1-Hydroxyethyl)benzimidazol-1-yl]-1,3-dihydrobenzimidazol-2-one]"
7,8.52,"O=c1[nH]c2ccc(-n3c(C(O)c4ccccc4)nc4ccccc43)cc2[nH]1 (stereo not shown) [Example 85, 5-[2-[Hydroxy(phenyl)methyl]benzimidazol-1-yl]-1,3-dihydrobenzimidazol-2-one]"
8,8.40,"CC(=O)N1CCC(N(C)C(=O)c2ccc3[nH]c(=O)[nH]c3c2)CC1 [Example 86, N-(1-Acetylpiperidin-4-yl)-N-methyl-2-oxo-2,3-dihydro-1H-benzo[d]imidazole-5-carboxamide]"
9,7.57,"O=C(Nc1ccc(Nc2ccccc2)cc1)Nc1ccc2[nH]c(=O)[nH]c2c1 [Example 87, 1-(2-Oxo-2,3-dihydro-1H-benzo[d]imidazol-5-yl)-3-(4-(phenylamino)phenyl)urea]"
10,7.77,"O=C(Nc1ccccc1)Nc1ccc2[nH]c(=O)[nH]c2c1 [Example 88, 1-(2-Oxo-2,3-dihydro-1H-benzo[d]imidazol-5-yl)-3-phenylurea]"
11,7.60,"COC(=O)c1cccc2c1CCN2C(=O)Nc1ccc2[nH]c(=O)[nH]c2c1 [Example 89, Methyl 1-((2-oxo-2,3-dihydro-1H-benzo[d]imidazol-5-yl)carbamoyl)indoline-4-carboxylate]"
12,7.72,"CC(=O)NCCC(=O)Nc1ccc2[nH]c(=O)[nH]c2c1 [Example 90, 3-Acetamido-N-(2-oxo-2,3-dihydro-1H-benzo[d]imidazol-5-yl)propanamide]"
13,8.30,"CC(=O)N1CCC(C(=O)Nc2ccc3[nH]c(=O)[nH]c3c2)CC1 [Example 91, 1-Acetyl-N-(2-oxo-2,3-dihydro-1H-benzo[d]imidazol-5-yl)piperidine-4-carboxamide]"
14,7.48,"COC(=O)c1ccc2c(c1)CCN2C(=O)Nc1ccc2[nH]c(=O)[nH]c2c1 [Example 92, Methyl 1-((2-oxo-2,3-dihydro-1H-benzo[d]imidazol-5-yl)carbamoyl)indoline-5-carboxylate]"
15,8.00,"CNC(=O)c1cccc2c1CCN2C(=O)Nc1ccc2[nH]c(=O)[nH]c2c1 [Example 93, N4-Methyl-N1-(2-oxo-2,3-dihydro-1H-benzo[d]imidazol-5-yl)indoline-1,4-dicarboxamide]"
16,> 9.00,"O=C(NCc1ccccc1)Nc1ccc2[nH]c(=O)[nH]c2c1 [Example 94, 1-Benzyl-3-(2-oxo-2,3-dihydro-1H-benzo[d]imidazol-5-yl)urea]"
17,7.70,"O=C(c1cnc2[nH]c(=O)[nH]c2c1)N1CCCc2ccccc21 [Example 95, 6-(1,2,3,4-Tetrahydroquinoline-1-carbonyl)-1,3-dihydro-2H-imidazo[4,5-b]pyridin-2-one]"
18,8.05,"CN(C(=O)c1ccc2[nH]c(=O)[nH]c2c1)c1ccccc1 [Example 96, N-Methyl-2-oxo-N-phenyl-2,3-dihydro-1H-benzo[d]imidazole-5-carboxamide]"
19,8.05,"O=C(c1ccc2[nH]c(=O)[nH]c2c1)N1CCCc2ccccc21 [Example 97, 5-(1,2,3,4-Tetrahydroquinoline-1-carbonyl)-1,3-dihydro-2H-benzo[d]imidazol-2-one]"

row,pKd,Structure (SMILES)
1,7.07,"COC(=O)c1cccc2c1CCCN2C(=O)Nc1ccc2[nH]c(=O)[nH]c2c1 [Example 98, Methyl 1-((2-oxo-2,3-dihydro-1H-benzo[d]imidazol-5-yl)carbamoyl)-1,2,3,4-tetrahydroquinoline-5-carboxylate]"
2,7.34,"NS(=O)(=O)c1ccc(CC(=O)Nc2ccc3[nH]c(=O)[nH]c3c2)cc1 [Example 99, N-(2-Oxo-2,3-dihydro-1H-benzo[d]imidazol-5-yl)-2-(4-sulfamoylphenyl)acetamide]"
3,7.54,"NS(=O)(=O)c1ccc(C(=O)Nc2ccc3[nH]c(=O)[nH]c3c2)cc1 [Example 100, N-(2-Oxo-2,3-dihydro-1H-benzo[d]imidazol-5-yl)-4-sulfamoylbenzamide]"
4,7.85,"CC(=O)Nc1ccc(NC(=O)Nc2ccc3[nH]c(=O)[nH]c3c2)cc1 [Example 101, N-(4-(3-(2-oxo-2,3-dihydro-1H-benzo[d]imidazol-5-yl)ureido)phenyl)acetamide]"
5,6.89,"CNC(=O)c1nc2ccccc2n1-c1ccc2[nH]c(=O)[nH]c2c1 [Example 102, N-Methyl-1-(2-oxo-1,3-dihydrobenzimidazol-5-yl)benzimidazole-2-carboxamide]"
6,7.46,"O=C(c1nc2ccccc2n1-c1ccc2[nH]c(=O)[nH]c2c1)N1CCCCC1 [Example 103, 5-[2-(Piperidine-1-carbonyl)benzimidazol-1-yl]-1,3-dihydrobenzimidazol-2-one]"
7,7.85,"O=c1[nH]c2cc(-c3ccccc3OCc3ccccc3)cnc2[nH]1 [Example 104, 6-(2-(Benzyloxy)phenyl)-1,3-dihydro-2H-imidazo[4,5-b]pyridin-2-one]"
8,8.40,"O=C(Nc1ccc2[nH]c(=O)[nH]c2c1)N1CCc2ccccc21 [Example 105, N-(2-Oxo-2,3-dihydro-1H-benzo[d]imidazol-5-yl)indoline-1-carboxamide]"
9,9.00,"CNS(=O)(=O)c1ccc(CC(=O)Nc2ccc3[nH]c(=O)[nH]c3c2)cc1 [Example 106, 2-(4-(N-Methylsulfamoyl)phenyl)-N-(2-oxo-2,3-dihydro-1H-benzo[d]imidazol-5-yl)acetamide]"
10,6.08,"COC(=O)c1ccc2c(c1)nc(-c1cc(-c3cncn3C)nc3ccccc13)n2-c1ccc2[nH]c(=O)[nH]c2c1 [Example 107, Methyl 2-(2-(1-methyl-1H-imidazol-5-yl)quinolin-4-yl)-2′-oxo-2′,3′-dihydro-1′H-[1,5′-bibenzo[d]imidazole]-5-carboxylate]"
11,6.97,"CNC(=O)c1ccc2c(c1)nc(-c1ccnc(OC)c1)n2-c1ccc2[nH]c(=O)[nH]c2c1 [Example 108, 2-(2-Methoxypyridin-4-yl)-N-methyl-2′-oxo-2′,3′-dihydro-1′H-[1,5′-bibenzo[d]imidazole]-5-carboxamide]"
12,7.41,"CNC(=O)c1cccc2c1CCCN2C(=O)Nc1ccc2[nH]c(=O)[nH]c2c1 [Example 109, N5-Methyl-N1-(2-oxo-2,3-dihydro-1H-benzo[d]imidazol-5-yl)-3,4-dihydroquinoline-1,5(2H)-dicarboxamide]"
13,7.54,"O=C1c2ccc(Br)cc2CN1c1ccc2[nH]c(=O)[nH]c2c1 [Example 110, 5-(5-Bromo-1-oxo-isoindolin-2-yl)-1,3-dihydrobenzimidazol-2-one]"
14,7.74,"CCOC(=O)c1ccc2c(c1)CN(c1ccc3[nH]c(=O)[nH]c3c1)C2=O [Example 111, Ethyl 1-oxo-2-(2-oxo-1,3-dihydrobenzimidazol-5-yl)isoindoline-5-carboxylate]"
15,7.24,"COC(=O)c1ccc2c(c1)CN(c1ccc3[nH]c(=O)[nH]c3c1)C2=O [Example 112, Methyl 1-oxo-2-(2-oxo-1,3-dihydrobenzimidazol-5-yl)isoindoline-5-carboxylate]"
16,6.05,"Cn1cncc1-c1cc(-c2nc3cc(C(N)=O)ccc3n2-c2ccc3[nH]c(=O)[nH]c3c2)c2ccccc2n1 [Example 113, 2-(2-(1-Methyl-1H-imidazol-5-yl)quinolin-4-yl)-2′-oxo-2′,3′-dihydro-1′H-[1,5′-bibenzo[d]imidazole]-5-carboxamide]"
17,8.10,"CNC(=O)c1ccc2c(c1)nc(C1(c3ccccc3)CC1)n2-c1ccc2[nH]c(=O)[nH]c2c1 [Example 114, N-Methyl-2′-oxo-2-(1-phenylcyclopropyl)-2′,3′-dihydro-1′H-[1,5′-bibenzo[d]imidazole]-5-carboxamide]"
18,7.02,"CNC(=O)c1ccc2c(c1)nc(C1(c3ccc(OC)cc3)CC1)n2-c1ccc2[nH]c(=O)[nH]c2c1 [Example 115, 2-(1-(4-Methoxyphenyl)cyclopropyl)-N-methyl-2′-oxo-2′,3′-dihydro-1′H-[1,5′-bibenzo[d]imidazole]-5-carboxamide]"
